Experimental data published in patent US20230338495A1, “Vaccine Compositions and Antibodies For Lyme Disease” (priority 2020, published 2023).

How the values were obtained:
[1] = tested on: IgM in Lyme Disease patient sera; experiment: MSD-ECL assay with Biotin-BBGL-1 / Biotin-BBGL-2 coated streptavidin plates, anti-IgM detection; type: binding, human; conditions: biotinylated antigen coated at 1 ug/mL; for IgM titer, EU: NC= 189.75
Procedure: (§1) A Meso Scale Discovery Electrochemiluminescence (MSD-ECL) assay was developed using Biotin-BBGL-1 and Biotin-BBGL-2 to measure antibody titers in Lyme Disease patient samples. The assay involved first blocking MSD streptavidin gold plate with 4% BGG (bovine gamma globulin in PBS), washing the plates with PBS and the coating Biotin-BBGL-1 and Biotin-BBGL-2 at concentration of 4 ug/mL (diluted in 4% BGG) for coating for IgG side of plate and at concentration of 1 ug/mL (diluted in 4% BGG) for coating for IgM side of plate. Serum samples (diluted 1:5) were then added to each well, incubated, and washed.
(§2) Detection reagents (Sulfo tag anti-lgG Fc or anti-IgM) were then added, incubated, and washed, followed by reading the plates on a Sector Imager (Meso Scale Diagnostic, Rockville, MD USA).

[2] = tested on: IgG in Lyme Disease patient sera; experiment: MSD-ECL assay with Biotin-BBGL-1 / Biotin-BBGL-2 coated streptavidin plates, anti-IgG Fc detection; type: binding, human; conditions: biotinylated antigen coated at 4 ug/mL; for IgG titer, EU: NC= 166.75
Procedure: as §1, §2

Borrelia burgdorferi = experiment: In vitro neutralization of Borrelia burgdorferi by Day 30 serum samples from immunized mice; type: in vivo; conditions: Day 30 sera of C3H/HeJ mice, n=6 per group; dosing at day 1 (77 µg/mouse per immunization, 10 µg QS-21/mouse)
Procedure: A pilot study in mice was conducted to determine the safety and in vitro efficacy of the BBGL-1 and BBGL-2 liposome vaccines in the absence or presence of the adjuvant QS-21 (Desert King International, San Diego, CA USA). Eighty-four (42 male, 42 female) C3H/HeJ mice (The Jackson Laboratory, Bar Harbor, ME USA), at approximately 7 weeks were used in the study, which is outlined in Table 17a and 17b.
7 Group of Mice (6 male and 6 female in each group) were given either 1) adjuvant alone, 2) Immunization A, 3) Adjuvant + Immunization A, 4) Immunization B, 5) Adjuvant + Immunization B, 6) Immunization A + Immunization B, or 7) Adjuvant + Immunization A + Immunization B
Immunization A and Immunization B were administered at 77 µg/mouse doses at day 1 and Day 30. Groups receiving adjuvant received 10 µg QS-21/mouse at Day 1 and Day 30.
Whole blood was collected into serum separator tubes at baseline and days 7, 15, 30, 45, and 60. Blood was allowed to clot and centrifuged at 1500xg and 10° C. for 15 minutes. Serum was aliquoted and stored at -30° C.
Serum aliquots were evaluated after 30 days, for neutralizing antibodies against Borrelia burgdorferi, B. mayonii, B. afzelii, and B. garinii using laboratory developed assays.
In vitro neutralization of Borrelia burgdorferi from Day 30 assessed with half of the mouse serum samples (n=6 per group) are shown in FIG. 7a.

Molecule	IgM titer, Fold/Baseline ([1]; patient L1 serum diluted 1:5)	IgM titer, EU ([1]; patient L1 serum diluted 1:5)	IgM titer, Fold/Baseline ([1]; patient L2 serum diluted 1:5)	IgM titer, EU ([1]; patient L2 serum diluted 1:5)	IgM titer, Fold/Baseline ([1]; patient L3 serum diluted 1:5)	IgM titer, EU ([1]; patient L3 serum diluted 1:5)	IgG titer, Fold/Baseline ([2]; patient L1 serum diluted 1:5)	IgG titer, EU ([2]; patient L1 serum diluted 1:5)	IgG titer, Fold/Baseline ([2]; patient L2 serum diluted 1:5)	IgG titer, EU ([2]; patient L2 serum diluted 1:5)	IgG titer, Fold/Baseline ([2]; patient L3 serum diluted 1:5)	IgG titer, EU ([2]; patient L3 serum diluted 1:5)	neutralization activity (Borrelia burgdorferi)
CCCCCCCCCCCCCCCC(=O)OC[C@H]1O[C@@H](O[C@H]2CC[C@@]3(C)C(=CC[C@H]4[C@@H]5CC[C@H]([C@H](C)CCCC(C)C)[C@@]5(C)CC[C@@H]43)C2)[C@H](O)[C@@H](O)[C@H]1O [BBGL1, cholesteryl 6-O-palmitoyl-β-D-galactopyranoside]	21 Fold/Baseline	4055.50 EU	2 Fold/Baseline	390.00 EU	7 Fold/Baseline	1338.00 EU	1.3 Fold/Baseline	218.50 EU	0.9 Fold/Baseline	143.50 EU	1.0 Fold/Baseline	166.00 EU	–
CCCCCCCC/C=C\CCCCCCCC(=O)OC[C@H](CO[C@H]1O[C@H](CO)[C@H](O)[C@H](O)[C@H]1O)OC(=O)CCCCCCCCCCCCCCC [BBGL2, 1-oleoyl-2-palmitoyl-3-(α-D-galactosyl)-sn-glycerol]	18 Fold/Baseline	3458.00 EU	2 Fold/Baseline	344.50 EU	6 Fold/Baseline	1229.50 EU	16 Fold/Baseline	2720.00 EU	4 Fold/Baseline	619.50 EU	1.1 Fold/Baseline	178.00 EU	–
QS-21	–	–	–	–	–	–	–	–	–	–	–	–	> 15%
